Results as given in EP0305845A1, “Pyridyl ethanol amines, pharmaceutical compositions containing them and processes for their preparation” (Dr. Karl Thomae GmbH, priority 1987, dated 1989).
Structures can show the parent of a compound that is named as a salt.

Assays:
Assay type in all cases: in vivo
[1] = system: weiblichen Mäusen eigener Zucht; test: Antiadipose effect a): increase of lipolysis measured as rise of serum glycerol in mice; conditions: same procedure as the blood glucose test
Excerpt: (§1) Die antidiabetische Wirkung der erfindungsgemäßen Verbindungen läßt sich als eine blutzuckersenkende Wirkung bei Versuchstieren messen. Die zu untersuchenden Substanzen wurden dazu in 1,5%iger Methylzellulose suspendiert und weiblichen Mäusen eigener Zucht mittels Schlundsonde appliziert. 30 Minuten später wurde 1 g Glukose pro kg Körpergewicht in Wasser gelöst und subkutan appliziert. Weitere 30 Minuten später wurde aus dem retroorbitalen Venenplexus Blut entnommen. Aus dem Serum wurde Glukose mit der Hexokinase-Methode mit Hilfe eines Analysenphotometers bestimmt.
Die antiadipöse Wirkung der erfindungsgemäßen Verbindungen wurde in zwei Versuchsanordnungen nachgewiesen: a) In der ersten Versuchsanordnung wurde die Steigerung der Lipolyse am Anstieg des Glyzerins im Serum gemessen. Der Versuchsablauf ist identisch mit der zur Testung auf blutzuckersenkende Wirkung vorstehend beschriebenen Versuchsanordnung. Glyzerin wurde in einem kombinierten enzymatisch-kolorimetrischen Test mit Hilfe eines Analysenphotometers bestimmt. Die Ergebnisse sind in der nachfolgenden Tabelle in % einer mitgeführten Kontrollgruppe aufgeführt.

[2] = system: weiblichen Mäusen eigener Zucht; test: Antidiabetic effect: blood glucose lowering after subcutaneous glucose load in mice; conditions: 1 g/kg glucose s.c. 30 min later, serum glucose after a further 30 min
Excerpt: as §1
In der nachstehenden Tabelle sind die bei dieser Versuchsanordnung beobachteten Blutzuckersenkungen in % einer mitgeführten Kontrollgruppe zusammengestellt. Die statistische Auswertung erfolgt nach dem t-Test nach Student mit p=0,05 als Signifikanzgrenze.

[3] = system: Mäusen; test: Cardiac side effects: heart rate in mice by ECG-triggered tachograph; conditions: 1 hour after application
Excerpt: Das Auftreten von unerwünschten Nebenwirkungen auf das Herz konnte für die erfindungsgemäßen Verbindungen für den therapeutisch angestrebten stoffwechselaktiven Dosisbereich ausgeschlossen werden. Als Nachweis diente die Messung der Herzfrequenz an Mäusen während der Testung auf blutzuckersenkende Wirkung (s.o.). Eine Stunde nach der oralen Applikation der Verbindungen wurde die Herzfrequenz mittels EKG-getriggertem Tachographen bestimmte. Die nachfolgende Tabelle gibt die Änderung der Herzfrequenz in % der Kontrollgruppe wieder.

[4] = system: Mäusen; test: Antiadipose effect b): decrease of ovarian fat tissue weight in mice; conditions: dose 0,3 mg/kg once daily by gavage; fat tissue weighed on day 5
Excerpt: b) In der zweiten Versuchsanordnung zur Erfassung antiadipö-ser Wirkung der erfindungsgemäßen Verbindungen wurde die Abnahme des Fettgewebes am Beispiel des Ovarfettgewebes gemessen. Die Verbindungen wurden zu diesem Zwecke Mäusen einmal täglich mittels Schlundsonde in 1,5%iger Methylzellulosesuspension appliziert. Am fünften Tag wurde das Ovarfettgewebe herauspräpariert und gewogen. In der nachfolgenden Tabelle sind die Ergebnisse in % einer mitgeführten Kontrollgruppe wiedergegeben.

[5] = dose 0,3 mg/kg oral, values in ( ) = not significant (p > 0.05)

CC(Cc1ccc(OCC(=O)O)cc1)NCC(O)c1cccc(Cl)n1 (single isomer, unassigned) [Beispiel 4, N-[2-(4-Carboxymethoxyphenyl)-1-methylethyl]-2-hydroxy-2-(6-chlor-pyridin-2-yl)ethanamin]
Anstieg des Glyzerins im Serum, % Änderung vom Wert der Kontrollgruppe ([1]; dose 0,3 mg/kg by gavage): +891%

CC(Cc1ccc(OCCO)cc1)NCC(O)c1cccc(Cl)n1 (single isomer, unassigned) [Beispiel 5]
Blutzuckersenkungen, % Änderung vom Wert der Kontrollgruppe ([2]; dose 0,3 mg/kg by gavage): -66% | Änderung der Herzfrequenz, % Änderung vom Wert der Kontrollgruppe [3, 5]: (+27) % | Abnahme des Ovarfettgewebes, % Änderung vom Wert der Kontrollgruppe [4]: -54% | Anstieg des Glyzerins im Serum, % Änderung vom Wert der Kontrollgruppe ([1]; dose 0,3 mg/kg by gavage): +878%

COC(=O)COc1ccc(CC(C)NCC(O)c2cccc(Cl)n2)cc1 (stereo not drawn) [Beispiel 1, N-[2-(4-Carbomethoxymethoxyphenyl)-1-methylethyl]-2-hydroxy-2-(6-chlor-pyridin-2-yl)ethanamin-hydrochlorid]
Blutzuckersenkungen, % Änderung vom Wert der Kontrollgruppe ([2]; dose 1,0 mg/kg by gavage): -66% | Änderung der Herzfrequenz, % Änderung vom Wert der Kontrollgruppe ([3]; dose 10 mg/kg oral): +35% | Anstieg des Glyzerins im Serum, % Änderung vom Wert der Kontrollgruppe ([1]; dose 1,0 mg/kg by gavage): +882%

CC(Cc1ccc(OCCO)cc1)NCC(O)c1cccc(Cl)n1 (stereo not drawn) [Beispiel 2, N-[2-(4-(2-Hydroxyethoxy)phenyl)-1-methylethyl]-2-hydroxy-2-(6-chlor-pyridin-2-yl)ethanamin-hydrochlorid]
Blutzuckersenkungen, % Änderung vom Wert der Kontrollgruppe ([2]; dose 0,1 mg/kg by gavage): -64% | Änderung der Herzfrequenz, % Änderung vom Wert der Kontrollgruppe [3, 5]: (+6,9) % | Anstieg des Glyzerins im Serum, % Änderung vom Wert der Kontrollgruppe ([1]; dose 0,1 mg/kg by gavage): +454%

CC(Cc1ccc(OCC(=O)O)cc1)NCC(O)c1cccc(Cl)n1 (stereo not drawn) [Beispiel 3, N-[2-(4-Carboxymethoxyphenyl)-1-methylethyl]-2-hydroxy-2-(6-chlor-pyridin-2-yl)ethanamin]
Anstieg des Glyzerins im Serum, % Änderung vom Wert der Kontrollgruppe ([1]; dose 0,3 mg/kg by gavage): +309%
